Test system: angiogenesis
Experiment: Inhibition of angiogenesis: in vivo rat model, pellet with angiogenic material (VEGF) and MMP inhibitor, corneal neovascularization scored after one week
Details: pellet implant
Procedure: Inhibition of Angiogenesis
The activity of MMP inhibitors, preferably MMP-2 or MMP-9 inhibitors, for inhibiting angiogenesis can be determined according to the following in vivo rat model. A 10µg pellet containing an angiogenic material, such as vascular endothelial growth factor (VEGF) and a matrix metalloproteinase inhibitor or placebo, is implanted intraorbitally. After one week the eyes are removed and the degree of inhibition of angiogenesis is determined qualitatively. Inhibitors with IC50's of less than 10nm reduced angiogenesis. […]

Row | Structure (SMILES) | % Response (10ng + VEGF) | Corneal Neovascularization (#Positive Response/#Response) (10ng + VEGF) | % Response (25ng + VEGF) | Corneal Neovascularization (#Positive Response/#Response) (25ng + VEGF) | % Response (50ng + VEGF) | Corneal Neovascularization (#Positive Response/#Response) (50ng + VEGF) | % Response (100ng + VEGF) | Corneal Neovascularization (#Positive Response/#Response) (100ng + VEGF)
1 | CC(C)(NS(=O)(=O)c1ccc(Oc2ccc(F)cc2)cc1)C(=O)NO [2-[4-(4-Fluoro-phenoxy)-benzenesulfonylamino]-N-hydroxy-2-methyl-propionamide] | 20% | 1/5 | 17% | 1/6 | 0% | 0/5 | 0% | 0/5
2 | O=C(NO)C1C2CCC(O2)C1S(=O)(=O)c1ccc(Oc2ccccc2)cc1 (stereo not drawn) [3-(4-Phenoxy-benzenesulfonyl)-7-oxa-bicyclo[2.2.1]heptane-2-carboxylic acid hydroxyamide] | 25% | 4/4 | 60% | 3/5 | 40% | 2/5 | 20% | 1/5
3 | O=C(O)CCN(C1(C(=O)NO)CCCC1)S(=O)(=O)c1ccc(Oc2ccc(F)cc2)cc1 [3-[[4-(4-Fluoro-phenoxy)-benzenesulfonyl]-(1-hydroxycarbamoyl-cyclopentyl)-amino]-propionic acid] | 25% | 1/4 | 17% | 1/6 | 0% | 0/5 | 0% | 0/5
